Results published in patent publication US11529358B2, “Treatment of conditions associated with myotonic dystrophy” (priority 2017, dated 2022).
“Also recorded” adds a separate entry of the source.

Assays:
DM subject [1] = assay: Clinical treatment of hypersomnia and cognitive deficits in DM subjects; type: in vivo, human
[2] = target: GABRG2S-containing receptors in HEK293T cells (Homo sapiens, UniProt P14867+P18507); assay: Patch clamp electrophysiology with DM subject CSF in HEK293T cells; conditions: CSF from DM subject 2, with GABA; clarithromycin added
[3] = test system: MBNL2 knockout and DMSXL transgenic mouse models; conditions: MBNL2 knockout and DMSXL transgenic mice; Charizanis et al. 2012; cited from earlier work
DM subject [4] = assay: Multidimensional Fatigue Inventory, self-reported; type: in vivo, human; conditions: additional DM subject; ON treatment: flumazenil 12-18 mg sublingual plus 12 mg topical daily, or armodafinil 250 mg QAM
DM subject [5] = assay: Fatigue severity scale, self-reported; type: in vivo, human; conditions: additional DM subject; ON treatment: flumazenil 12-18 mg sublingual plus 12 mg topical daily, or armodafinil 250 mg QAM
DM subject [6] = assay: Sleep inertia questionnaire, self-reported; type: in vivo, human; conditions: additional DM subject; ON treatment: flumazenil 12-18 mg sublingual plus 12 mg topical daily, or armodafinil 250 mg QAM
DM subject [7] = assay: Functional Outcomes of sleep, self-reported; type: in vivo, human; conditions: additional DM subject; ON treatment: flumazenil 12-18 mg sublingual plus 12 mg topical daily, or armodafinil 250 mg QAM
DM subject [8] = assay: Hypersomnia Severity Index, self-reported; type: in vivo, human; conditions: additional DM subject; ON treatment: flumazenil 12-18 mg sublingual plus 12 mg topical daily, or armodafinil 250 mg QAM
DM subject [9] = assay: Owl Lark questionnaire, self-reported; type: in vivo, human; conditions: additional DM subject; ON treatment: flumazenil 12-18 mg sublingual plus 12 mg topical daily, or armodafinil 250 mg QAM
DM subject [10] = assay: Beck Depression Inventory, self-reported; type: in vivo, human; conditions: additional DM subject; ON treatment: flumazenil 12-18 mg sublingual plus 12 mg topical daily, or armodafinil 250 mg QAM
DM subject [11] = assay: Epworth Sleepiness Scale, self-reported
gamma 2L deficient mice = conditions: Quinlan et al. 2000; cited from earlier work
[12] = test system: benzodiazepine binding site of GABAA receptors; conditions: previous work, Rye et al. 2012; cited from earlier work
[13] = test system: idiopathic hypersomnia (IH) subjects; conditions: previous work, Rye 2012; Trotti 2016; cited from earlier work
DM subject 1 [14] = assay: Stanford sleepiness scale; conditions: intravenous flumazenil, 2 different doses incl. 2.0 mg, average of 3 assessments over one hour
DM subject 1 [15] = assay: Ten-minute psychomotor vigilance task
[16] = additional DM subject, ON treatment: flumazenil 12-18 mg sublingual plus 12 mg topical daily, or armodafinil 250 mg QAM

Sequence of GABRG2S-containing receptors in HEK293T cells (P18507 40-467 isoform P18507-1 limits assumed): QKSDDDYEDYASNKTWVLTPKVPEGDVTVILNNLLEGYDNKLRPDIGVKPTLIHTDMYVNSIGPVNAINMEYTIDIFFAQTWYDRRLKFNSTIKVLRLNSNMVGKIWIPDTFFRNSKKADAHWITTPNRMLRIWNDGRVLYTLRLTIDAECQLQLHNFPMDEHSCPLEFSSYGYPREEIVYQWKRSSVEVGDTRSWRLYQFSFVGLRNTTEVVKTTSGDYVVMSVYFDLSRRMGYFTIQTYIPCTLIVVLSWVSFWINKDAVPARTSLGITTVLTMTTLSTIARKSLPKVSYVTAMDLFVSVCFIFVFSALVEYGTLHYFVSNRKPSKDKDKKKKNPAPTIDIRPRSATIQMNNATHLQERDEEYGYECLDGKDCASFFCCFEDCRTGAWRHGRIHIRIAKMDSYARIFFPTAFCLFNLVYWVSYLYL
Sequence of GABRG2S-containing receptors in HEK293T cells (P14867 28-456): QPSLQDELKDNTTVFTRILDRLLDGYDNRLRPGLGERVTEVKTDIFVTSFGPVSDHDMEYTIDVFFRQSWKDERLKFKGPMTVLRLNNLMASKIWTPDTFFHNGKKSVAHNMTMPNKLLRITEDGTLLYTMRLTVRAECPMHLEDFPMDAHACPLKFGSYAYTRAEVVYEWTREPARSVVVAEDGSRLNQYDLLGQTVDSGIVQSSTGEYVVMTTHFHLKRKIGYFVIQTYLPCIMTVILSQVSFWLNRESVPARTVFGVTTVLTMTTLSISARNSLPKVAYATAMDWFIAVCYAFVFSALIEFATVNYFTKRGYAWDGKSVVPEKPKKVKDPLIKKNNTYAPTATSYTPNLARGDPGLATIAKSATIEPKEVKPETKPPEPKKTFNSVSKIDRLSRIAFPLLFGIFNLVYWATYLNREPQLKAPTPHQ
Sequence of GABRG2S-containing receptors in HEK293T cells (P47870 25-512 partner limits assumed): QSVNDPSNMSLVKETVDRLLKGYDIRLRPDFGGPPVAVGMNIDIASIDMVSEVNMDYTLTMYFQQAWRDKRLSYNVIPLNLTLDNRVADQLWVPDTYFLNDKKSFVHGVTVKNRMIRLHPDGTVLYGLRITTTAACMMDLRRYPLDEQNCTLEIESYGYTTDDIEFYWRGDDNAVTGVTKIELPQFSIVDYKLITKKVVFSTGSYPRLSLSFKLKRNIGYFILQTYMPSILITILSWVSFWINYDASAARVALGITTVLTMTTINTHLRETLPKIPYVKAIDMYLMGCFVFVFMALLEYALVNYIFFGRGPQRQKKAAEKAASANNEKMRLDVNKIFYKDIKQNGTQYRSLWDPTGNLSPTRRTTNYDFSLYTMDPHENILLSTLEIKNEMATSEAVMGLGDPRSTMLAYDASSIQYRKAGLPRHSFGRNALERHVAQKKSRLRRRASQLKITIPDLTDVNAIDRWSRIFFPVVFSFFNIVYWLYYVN

Question: For `CC[C@H]1OC(=O)[C@H](C)[C@@H](O[C@H]2C[C@@](C)(OC)[C@@H](O)[C@H](C)O2)[C@H](C)[C@@H](O[C@@H]2O[C@H](C)C[C@H](N(C)C)[C@H]2O)[C@](C)(OC)C[C@@H](C)C(=O)[C@H](C)[C@@H](O)[C@]1(C)O` [clarithromycin], which “Oral clarithromycin treatment outcome” value (DM subject [1]; DM subject 1) is on record?
Answer: Its value is “discontinued use -”.

Question: What about the “Oral clarithromycin treatment outcome” value (DM subject [1]; DM subject 2) of the same molecule?
Answer: The value was “clinical benefit; also recorded: efficacious”.

Question: What about the “effect on endozepine-like activity of CSF” value [2] of the same molecule?
Answer: The value was “reversed; also recorded: normalized”.

Question: Which “spontaneous seizure and death in response to PTZ” value [3] does the source give for `C1CCc2nnnn2CC1` [Pentylenetetrazole] here?
Answer: The value was “increased frequency of spontaneous seizure and death”.

Question: Which “General Fatigue (5-20)” value (DM subject [4]) does the source give for `NC(=O)C[S@@+]([O-])C(c1ccccc1)c1ccccc1` [Armodafmil, armodafinil] here?
Answer: Its value is 15.

Question: What about the “Mental Fatigue (5-20)” value (DM subject [4]) of the same molecule?
Answer: Its value is 11.

Question: And the “Physical Fatigue (5-20)” value (DM subject [4])?
Answer: Its value is 6.

Question: What about the “Reduced Activity (5-20)” value (DM subject [4]) of the same molecule?
Answer: Its value is 7.

Question: And the “Reduced Motivation (5-20)” value (DM subject [4])?
Answer: The value was 5.

Question: And the “Fatigue severity scale (7-63)” value (DM subject [5])?
Answer: The value was 47.

Question: And the Sleep inertia questionnaire (DM subject [6])?
Answer: The Sleep inertia questionnaire was 14.683.

Question: And the “Functional Outcomes of sleep (5-20)” value (DM subject [7])?
Answer: The value was 16.875.

Question: What about the “Hypersomnia Severity Index (0-36)” value (DM subject [8]) of the same molecule?
Answer: The value was 25.

Question: What about the “Owl Lark” value (DM subject [9]) of the same molecule?
Answer: The value was 36.

Question: What about the “Beck Depression Inventory (0-39)” value (DM subject [10]) of the same molecule?
Answer: The value was 3.

Question: What about the “Epworth Sleepiness Scale” value (DM subject [11]; [16]) of the same molecule?
Answer: Its value is 8.

Question: Which “action of midazolam in gamma 2L deficient mice” value (gamma 2L deficient mice) does the source give for `CCOC(=O)c1ncn2c1CN(C)C(=O)c1cc(F)ccc1-2` [flumazenil] here?
Answer: Its value is “reversed”.

Question: And the endozepine-like molecule binding [12]?
Answer: The endozepine-like molecule binding was “inhibits endozepine-like molecule binding”.

Question: What about the “clinical benefit in idiopathic hypersomnia” value [13] of the same molecule?
Answer: The value was “clinical benefit”.

Question: What about the “self reported sleepiness on the Stanford sleepiness scale” value (DM subject 1 [14]) of the same molecule?
Answer: Its value is “reduced sleepiness”.

Question: What about the “time elapsed between visual stimulus and user input” value (DM subject 1 [15]; 2.0 mg intravenously administered flumazenil, versus before treatment) of the same molecule?
Answer: The value was “dramatic decrease in time elapsed”.

Question: What about the “lapses in attention (reaction times >500 ms)” value (DM subject 1 [15]; intravenous flumazenil, 2 different doses incl. 2.0 mg) of the same molecule?
Answer: The value was “marked reduction in lapses in attention; also recorded: decreased”.

Question: What about the “Epworth Sleepiness Scale” value (DM subject [11]; DM subject 4, ON flumazenil 12-18 mg sublingual plus 12 mg topical daily, 6 continuous weeks) of the same molecule?
Answer: The value was 5.

Question: What about the “Epworth Sleepiness Scale” value (DM subject [11]; [16]) of the same molecule?
Answer: Its value is 7.
